From US20100004267A1, “LIQUID PREPARATION” (ASUBIO PHARMA CO., LTD., priority 2006, published 2010)

Tests used:
[1] = Stability test based on difference of pH buffer, 6 months (Test example 4); assay type: physicochemical; parameters: key to Insoluble materials: ◯ means absence of insoluble matters; X: × means presence of insoluble matters
Method: According to experimental formulations and target pH shown in Table 4 below, liquid preparations were prepared in the following manner.
After filtering this solution under reduced pressure, 20 mL of this solution was filled into a brown ampule subjected to inner wall treatment by SiO2 glass film (Silicoat ampule; brown 20 mL-volume; available from FUJI GLASS CO., LTD.), and then the ampule was sealed. Using high-pressure steam sterilizer (autoclave), the ampule was autoclaved in a setting condition: 121° C./24 minutes.
The samples were stored at 5° C., 25° C./60% relative humidity (RH), […] were evaluated in time series until a lapse of 6 months, after evaluating presence/absence of insoluble foreign matters after autoclave sterilization. For evaluation of insoluble foreign matters, an appearance checker was used and observation was conducted under 1,000 Lux. […]
Likewise the foregoing (1) liquid preparation with acetic acid buffer system (for pH adjustment, 1 mol/L or 0.1 mol/L hydrochloric acid was used), each sample was prepared according to the experimental formulations and target pH shown in Table 4 below, and each sample was stored at 5° C., 25° C./60% relative humidity (RH), […] were evaluated in time-series until a lapse of 6 months, after evaluating presence/absence of insoluble foreign matters after autoclave sterilization. […]

[2] = Examination on prevention of light decomposition (Test example 5); assay type: physicochemical
Method: To 800 mL of purified water, 100 g of Captisol (available from CyDex Inc.) serving as a solubilizing agent, 1 g of sodium bisulfite (available from JUNSEI CHEMICAL) serving as an antioxidant, and 5 g of SUN N8075 were sequentially dissolved, and the volume was adjusted to precisely 1,000 mL with purified water, and filtered under reduced pressure. Then each 20 mL of the solution was filled into a colorless ampule (Silicoat ampule, white, 20 mL capacity, available from FUJI GLASS CO., LTD.) and a brown ampule (Silicoat ampule, brown, 20 mL capacity, available from FUJI GLASS CO., LTD.), and then the ampule was sealed. Using autoclave (FLC-M09S30WZ, available from SAKURA SEIKI Co., Ltd.), autoclave sterilization was conducted in a setting condition: 121° C./24 minutes.
A sample of each of these ampules was stored under D65 lamp 2,000 Lux, and irradiated with 40, 80, 120×10^4 Lux, and then SUN N8075 related substances were measured with a HPLC device. The related substances were calculated as a peak ratio of the total related substances, relative to SUN N8075 peak area.
To 150 mL of purified water, a predetermined amount (none, 0.05 g, 0.1 g and 0.2 g) of sodium bisulfite (available from JUNSEI CHEMICAL) serving as an antioxidant, and 1 g of SUN N8075 were sequentially dissolved, and the volume was adjusted to precisely 200 mL with purified water. After filtering under reduced pressure, the solution was bubbled with nitrogen gas for 5 minutes. Then 20 mL of the solution was immediately filled into a brown ampule (Silicoat ampule, brown, 20 mL capacity, available from FUJI GLASS CO., LTD.) having subjected to nitrogen gas replacement, and then the ampule was sealed. Using autoclave (FLC-M09S30WZ, available from SAKURA SEIKI Co., Ltd.), autoclave sterilization was conducted in a setting condition: 121° C./24 minutes.
A sample of each of these ampules was stored under D65 lamp 2,000 Lux, and irradiated with 40×10^4 Lux, and then SUN N8075 related substances were measured with a HPLC device. The related substances were calculated as a peak ratio of the total related substances, relative to SUN N8075 peak area.
As a control sample, 1 g of SUN N8075 was dissolved into 150 mL of purified water, and the volume was adjusted precisely to 200 mL with purified water. Then the solution was filtered under reduced pressure, and bubbled with nitrogen gas for 5 minutes. Then 20 mL of the solution was immediately filled into a brown ampule (Silicoat ampule, brown, 20 mL capacity, available from FUJI GLASS CO., LTD.) replaced with nitrogen gas, and then the ampule was sealed.
This was prepared as a control sample at the start of the test, and SUN N8075 related substances were measured in the similar manner.

[3] = acetic acid/sodium acetate buffer, Captisol 10.0%, pH at preparation 3.8 (Table 4 no. 3), 40° C./75% RH/6 months
[4] = acetic acid/sodium acetate buffer, Captisol 10.0%, pH at preparation 4.2 (Table 4 no. 4), 40° C./75% RH/6 months
[5] = glycine buffer, Captisol 7.5%, pH at preparation 3.8 (Table 4 no. 5), 40° C./75% RH/6 months
[6] = glycine buffer, Captisol 7.5%, pH at preparation 4.2 (Table 4 no. 6), 40° C./75% RH/6 months
[7] = glycine buffer, Captisol 10.0%, pH at preparation 3.8 (Table 4 no. 7), 40° C./75% RH/6 months
[8] = glycine buffer, Captisol 10.0%, pH at preparation 4.2 (Table 4 no. 8), 40° C./75% RH/6 months
[9] = Control: without sodium bisulfite, brown ampule, Start
[10] = N2 gas replacement, sodium bisulfite 0.05%, brown ampule, irradiation 40 ×10^4 LUX
[11] = N2 gas replacement, sodium bisulfite 0.1%, brown ampule, irradiation 40 ×10^4 LUX
[12] = N2 gas replacement, sodium bisulfite […], brown ampule, irradiation 40 ×10^4 LUX
[13] = N2 gas replacement, without sodium bisulfite, brown ampule, irradiation 40 ×10^4 LUX
[14] = without N2 gas replacement, sodium bisulfite 0.1%, Captisol 10%, brown ampule, irradiation 40 ×10^4 LUX
[15] = without N2 gas replacement, sodium bisulfite 0.1%, Captisol 10%, brown ampule, irradiation 80 ×10^4 LUX
[16] = without N2 gas replacement, sodium bisulfite 0.1%, Captisol 10%, brown ampule, irradiation 120 ×10^4 LUX
[17] = without N2 gas replacement, sodium bisulfite 0.1%, Captisol 10%, colorless ampule, irradiation 40 ×10^4 LUX
[18] = without N2 gas replacement, sodium bisulfite 0.1%, Captisol 10%, colorless ampule, irradiation 80 ×10^4 LUX
[19] = without N2 gas replacement, sodium bisulfite 0.1%, Captisol 10%, colorless ampule, irradiation 120 ×10^4 LUX

Cc1cc(OC[C@@H](O)CN2CCN(c3ccc(Cc4ccc(F)cc4)cc3)CC2)c(C)c(C)c1N [SUN N8075, (2S)-1-(4-amino-2,3,5-trimethylphenoxy)-3-{4-[4-(4-fluorobenzyl)phenyl]-1-piperazinyl}-2-propanol dimethane sulfonate]
Insoluble materials ([1]; acetic acid/sodium acetate buffer, Captisol 7.5%, pH at preparation 3.8 (Table 4 no. 1), 5° C./6 months): ◯
Storage period at which generation of insoluble matters was observed ([1]; acetic acid/sodium acetate buffer, Captisol 7.5%, pH at preparation 3.8 (Table 4 no. 1), 25° C./60% RH): (6 months)
Insoluble materials ([1]; acetic acid/sodium acetate buffer, Captisol 7.5%, pH at preparation 3.8 (Table 4 no. 1), 25° C./60% RH/6 months): X
Insoluble materials ([1]; acetic acid/sodium acetate buffer, Captisol 7.5%, pH at preparation 3.8 (Table 4 no. 1), 40° C./60% RH/6 months): ◯
pH ([1]; acetic acid/sodium acetate buffer, Captisol 7.5%, pH at preparation 3.8 (Table 4 no. 1), 40° C./75% RH/6 months): 2.74
Insoluble materials ([1]; acetic acid/sodium acetate buffer, Captisol 7.5%, pH at preparation 3.8 (Table 4 no. 1), just after autoclave sterilization): ◯
Insoluble materials ([1]; acetic acid/sodium acetate buffer, Captisol 7.5%, pH at preparation 4.2 (Table 4 no. 2), 5° C./6 months): ◯
Insoluble materials ([1]; acetic acid/sodium acetate buffer, Captisol 7.5%, pH at preparation 4.2 (Table 4 no. 2), 25° C./60% RH/6 months): ◯
Storage period at which generation of insoluble matters was observed ([1]; acetic acid/sodium acetate buffer, Captisol 7.5%, pH at preparation 4.2 (Table 4 no. 2), 40° C./60% RH): (3 months)
Insoluble materials ([1]; acetic acid/sodium acetate buffer, Captisol 7.5%, pH at preparation 4.2 (Table 4 no. 2), 40° C./60% RH/6 months): X
pH ([1]; acetic acid/sodium acetate buffer, Captisol 7.5%, pH at preparation 4.2 (Table 4 no. 2), 40° C./75% RH/6 months): 2.96
Insoluble materials ([1]; acetic acid/sodium acetate buffer, Captisol 7.5%, pH at preparation 4.2 (Table 4 no. 2), just after autoclave sterilization): ◯
Insoluble materials ([1]; acetic acid/sodium acetate buffer, Captisol 10.0%, pH at preparation 3.8 (Table 4 no. 3), 5° C./6 months): ◯
Insoluble materials ([1]; acetic acid/sodium acetate buffer, Captisol 10.0%, pH at preparation 3.8 (Table 4 no. 3), 25° C./60% RH/6 months): ◯
Insoluble materials [1, 3]: ◯
pH [1, 3]: 2.60
Insoluble materials ([1]; acetic acid/sodium acetate buffer, Captisol 10.0%, pH at preparation 3.8 (Table 4 no. 3), just after autoclave sterilization): ◯
Insoluble materials ([1]; acetic acid/sodium acetate buffer, Captisol 10.0%, pH at preparation 4.2 (Table 4 no. 4), 5° C./6 months): ◯
Insoluble materials ([1]; acetic acid/sodium acetate buffer, Captisol 10.0%, pH at preparation 4.2 (Table 4 no. 4), 25° C./60% RH/6 months): ◯
Insoluble materials [1, 4]: ◯
pH [1, 4]: 2.82
Insoluble materials ([1]; acetic acid/sodium acetate buffer, Captisol 10.0%, pH at preparation 4.2 (Table 4 no. 4), just after autoclave sterilization): ◯
Insoluble materials ([1]; glycine buffer, Captisol 7.5%, pH at preparation 3.8 (Table 4 no. 5), 5° C./6 months): ◯
Insoluble materials ([1]; glycine buffer, Captisol 7.5%, pH at preparation 3.8 (Table 4 no. 5), 25° C./60% RH/6 months): ◯
Insoluble materials [1, 5]: ◯
pH [1, 5]: 3.46
Insoluble materials ([1]; glycine buffer, Captisol 7.5%, pH at preparation 3.8 (Table 4 no. 5), just after autoclave sterilization): ◯
Insoluble materials ([1]; glycine buffer, Captisol 7.5%, pH at preparation 4.2 (Table 4 no. 6), 5° C./6 months): ◯
Insoluble materials ([1]; glycine buffer, Captisol 7.5%, pH at preparation 4.2 (Table 4 no. 6), 25° C./60% RH/6 months): ◯
Insoluble materials [1, 6]: ◯
pH [1, 6]: 3.73
Insoluble materials ([1]; glycine buffer, Captisol 7.5%, pH at preparation 4.2 (Table 4 no. 6), just after autoclave sterilization): ◯
Insoluble materials ([1]; glycine buffer, Captisol 10.0%, pH at preparation 3.8 (Table 4 no. 7), 5° C./6 months): ◯
Insoluble materials ([1]; glycine buffer, Captisol 10.0%, pH at preparation 3.8 (Table 4 no. 7), 25° C./60% RH/6 months): ◯
Insoluble materials [1, 7]: ◯
pH [1, 7]: 3.49
Insoluble materials ([1]; glycine buffer, Captisol 10.0%, pH at preparation 3.8 (Table 4 no. 7), just after autoclave sterilization): ◯
Insoluble materials ([1]; glycine buffer, Captisol 10.0%, pH at preparation 4.2 (Table 4 no. 8), 5° C./6 months): ◯
Insoluble materials ([1]; glycine buffer, Captisol 10.0%, pH at preparation 4.2 (Table 4 no. 8), 25° C./60% RH/6 months): ◯
Insoluble materials [1, 8]: ◯
pH [1, 8]: 3.74
Insoluble materials ([1]; glycine buffer, Captisol 10.0%, pH at preparation 4.2 (Table 4 no. 8), just after autoclave sterilization): ◯
Related Substance Peak ratio [2, 9]: 0.629
SUN N8075 Peak ratio [2, 9]: 99.37
Related Substance Peak ratio [2, 10]: 0.608
SUN N8075 Peak ratio [2, 10]: 99.39
Related Substance Peak ratio [2, 11]: 0.567
SUN N8075 Peak ratio [2, 11]: 99.43
Related Substance Peak ratio [2, 12]: 0.581
SUN N8075 Peak ratio [2, 12]: 99.42
Related Substance Peak ratio [2, 13]: 0.967
SUN N8075 Peak ratio [2, 13]: 99.03
Related Substance Peak ratio [2, 14]: 1.140
SUN N8075 Peak ratio [2, 14]: 98.86
Related Substance Peak ratio [2, 15]: 1.301
SUN N8075 Peak ratio [2, 15]: 98.70
Related Substance Peak ratio [2, 16]: 1.750
SUN N8075 Peak ratio [2, 16]: 98.25
Related Substance Peak ratio [2, 17]: 4.552
SUN N8075 Peak ratio [2, 17]: 95.45
Related Substance Peak ratio [2, 18]: 4.953
SUN N8075 Peak ratio [2, 18]: 95.05
Related Substance Peak ratio [2, 19]: 5.987
SUN N8075 Peak ratio [2, 19]: 94.01
